Test results: ChEMBL document CHEMBL1201862, “PubChem BioAssay data set” (2004)
Calls of active or inactive are those of the source.

How the values were obtained:
cells [1] = type: functional, cell-based
[2] = target: T1, Trace amine-associated receptor 1 (Homo sapiens, UniProt Q96RJ0); test: Fluorescence-based cell-based high throughput dose response assay to identify agonists of the human trace amine associated receptor 1 (TAAR1).; type: functional
T1 sequence (Q96RJ0 whole entry): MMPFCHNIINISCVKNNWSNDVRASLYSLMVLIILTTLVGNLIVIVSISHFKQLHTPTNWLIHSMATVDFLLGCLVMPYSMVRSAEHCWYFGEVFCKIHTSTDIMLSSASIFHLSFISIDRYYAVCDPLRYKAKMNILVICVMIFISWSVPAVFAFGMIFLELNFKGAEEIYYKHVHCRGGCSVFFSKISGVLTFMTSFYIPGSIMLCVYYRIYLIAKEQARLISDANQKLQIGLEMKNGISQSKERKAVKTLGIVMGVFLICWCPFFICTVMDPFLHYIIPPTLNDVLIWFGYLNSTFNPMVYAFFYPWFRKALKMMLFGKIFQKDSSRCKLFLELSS

cells [3] = type: functional, cell-based; remark: listed apart in the source
[4] = target: T1, Trace amine-associated receptor 1; test: Counterscreen for agonists of the human trace amine associated receptor 1 (hTAAR1): Fluorescence-based cell-based high throughput dose response assay to identify hTAAR1 agonist that also desensitize TAAR1 receptor response.; type: functional
[5] = Jurkat T cell cytotoxicity, dose response, cytotoxicity control for P. falciparum gametocyte viability project, luminescence (AID 1117277); type: functional, cell-based;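 note: potency reflects loss of cellular ATP meaning fewer viable cells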
[6] = P. falciparum late gametocyte killing, dose response, luminescence (AID 1117278); type: functional, cell-based;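 note: gametocytes exposed to compound for 24 hours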
[7] = target: RNA-editing ligase 1, mitochondrial (Trypanosoma brucei brucei, UniProt P86926); test: TbREL1 ligase inhibitors, dose response, biochemical, fluorescence, Trypanosoma brucei (AID 1117295); type: functional
RNA-editing ligase 1, mitochondrial, sequence (P86926 whole entry): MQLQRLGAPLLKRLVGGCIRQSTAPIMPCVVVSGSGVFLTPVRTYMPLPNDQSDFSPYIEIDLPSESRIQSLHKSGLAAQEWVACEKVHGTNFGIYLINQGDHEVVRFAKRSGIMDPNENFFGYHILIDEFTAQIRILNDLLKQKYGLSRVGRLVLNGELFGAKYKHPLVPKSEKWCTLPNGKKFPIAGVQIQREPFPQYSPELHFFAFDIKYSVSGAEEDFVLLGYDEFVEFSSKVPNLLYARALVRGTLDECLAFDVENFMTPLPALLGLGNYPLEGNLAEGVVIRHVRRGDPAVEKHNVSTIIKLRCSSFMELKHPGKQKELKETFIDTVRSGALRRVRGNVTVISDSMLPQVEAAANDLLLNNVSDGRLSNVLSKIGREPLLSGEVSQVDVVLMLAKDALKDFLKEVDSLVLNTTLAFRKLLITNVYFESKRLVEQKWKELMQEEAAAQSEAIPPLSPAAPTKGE

[8] = target: T2, Rac GTPase-activating protein 1 (Homo sapiens, UniProt Q9H0H5); test: MgcRacGAP GTPase-activating activity inhibitors, confirmation, biochemical, ADP Hunter fluorescence, primary and confirmatory (AID 624330); type: functional
T2 sequence (Q9H0H5 whole entry): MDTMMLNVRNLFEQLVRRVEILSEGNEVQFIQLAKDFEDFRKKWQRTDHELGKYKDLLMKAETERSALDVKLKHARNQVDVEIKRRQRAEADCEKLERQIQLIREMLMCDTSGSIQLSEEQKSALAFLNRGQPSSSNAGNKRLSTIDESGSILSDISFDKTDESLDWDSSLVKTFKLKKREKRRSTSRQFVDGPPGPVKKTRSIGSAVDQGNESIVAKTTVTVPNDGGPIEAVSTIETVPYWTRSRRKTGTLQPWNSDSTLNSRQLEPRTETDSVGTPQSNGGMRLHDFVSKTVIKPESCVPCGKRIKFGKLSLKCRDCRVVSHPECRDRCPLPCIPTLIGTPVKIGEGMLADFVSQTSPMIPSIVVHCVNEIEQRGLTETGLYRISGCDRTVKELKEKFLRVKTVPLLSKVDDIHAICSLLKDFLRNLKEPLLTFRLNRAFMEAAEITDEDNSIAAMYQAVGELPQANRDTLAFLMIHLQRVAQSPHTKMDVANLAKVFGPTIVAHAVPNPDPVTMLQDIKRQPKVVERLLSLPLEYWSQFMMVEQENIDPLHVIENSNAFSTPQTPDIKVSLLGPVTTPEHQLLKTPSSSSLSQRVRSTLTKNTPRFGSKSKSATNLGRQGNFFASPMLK

[9] = target: T3, DNA repair protein RAD52 homolog (Homo sapiens, UniProt P43351); type: functional, biochemical
T3 sequence (P43351 whole entry): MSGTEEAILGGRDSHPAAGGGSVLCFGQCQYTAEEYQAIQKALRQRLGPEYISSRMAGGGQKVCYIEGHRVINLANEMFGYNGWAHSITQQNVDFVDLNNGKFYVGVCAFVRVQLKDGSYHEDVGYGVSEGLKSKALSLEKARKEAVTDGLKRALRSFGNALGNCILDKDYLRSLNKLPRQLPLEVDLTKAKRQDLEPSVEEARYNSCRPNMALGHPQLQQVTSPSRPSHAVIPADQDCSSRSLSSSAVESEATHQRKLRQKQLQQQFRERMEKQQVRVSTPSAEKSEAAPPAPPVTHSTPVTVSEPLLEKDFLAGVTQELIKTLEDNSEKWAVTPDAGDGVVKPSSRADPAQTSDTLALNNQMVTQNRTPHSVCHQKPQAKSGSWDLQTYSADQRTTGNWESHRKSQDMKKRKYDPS

[10] = target: T4, Zinc finger protein mex-5 (Caenorhabditis elegans, UniProt Q9XUB2); test: MEX-5/TCR-2 RNA interaction inhibitors, dose response, biochemical, C. elegans, fluorescence polarization (AID 1960)
T4 sequence (Q9XUB2 whole entry): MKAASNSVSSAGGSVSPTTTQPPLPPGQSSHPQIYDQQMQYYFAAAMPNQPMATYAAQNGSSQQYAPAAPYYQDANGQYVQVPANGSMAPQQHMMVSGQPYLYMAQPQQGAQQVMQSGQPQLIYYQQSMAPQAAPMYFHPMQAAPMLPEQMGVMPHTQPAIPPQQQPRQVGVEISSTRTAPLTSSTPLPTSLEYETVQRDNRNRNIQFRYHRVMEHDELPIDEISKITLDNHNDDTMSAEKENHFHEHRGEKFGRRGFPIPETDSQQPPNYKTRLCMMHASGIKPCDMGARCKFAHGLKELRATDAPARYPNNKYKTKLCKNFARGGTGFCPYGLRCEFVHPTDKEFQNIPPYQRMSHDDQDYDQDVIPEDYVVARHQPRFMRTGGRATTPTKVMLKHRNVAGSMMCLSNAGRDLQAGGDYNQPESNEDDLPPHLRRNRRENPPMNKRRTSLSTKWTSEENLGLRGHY

[11] = HeLa cell cytotoxicity, dose response, cytotoxicity control for MgcRacGAP inhibitor project (AID 624300); type: functional
[12] = target: T5, RNA-binding protein pos-1 (Caenorhabditis elegans, UniProt G5EF15); test: inhibitors of POS-1/mex-3 RNA binding, dose response, biochemical, fluorescence polarization (AID 1964);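 note: purified POS-1 fused to maltose binding protein made in E. coli; potency of compounds blocking POS-1 binding to fluorescent RNA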
T5 sequence (G5EF15 whole entry): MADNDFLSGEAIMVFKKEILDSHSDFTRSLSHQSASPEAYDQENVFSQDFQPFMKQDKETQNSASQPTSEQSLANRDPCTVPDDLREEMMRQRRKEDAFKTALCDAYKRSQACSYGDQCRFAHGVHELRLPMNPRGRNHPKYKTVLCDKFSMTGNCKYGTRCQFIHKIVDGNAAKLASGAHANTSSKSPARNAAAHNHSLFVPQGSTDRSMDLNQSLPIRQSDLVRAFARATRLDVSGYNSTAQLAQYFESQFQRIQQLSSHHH

Nonstructural protein 1 = Nonstructural protein 1 (Influenza A virus, UniProt Q194T2); type: functional, Influenza A virus (A/California/07/2009(H1N1))
Nonstructural protein 1, sequence (Q194T2 whole entry): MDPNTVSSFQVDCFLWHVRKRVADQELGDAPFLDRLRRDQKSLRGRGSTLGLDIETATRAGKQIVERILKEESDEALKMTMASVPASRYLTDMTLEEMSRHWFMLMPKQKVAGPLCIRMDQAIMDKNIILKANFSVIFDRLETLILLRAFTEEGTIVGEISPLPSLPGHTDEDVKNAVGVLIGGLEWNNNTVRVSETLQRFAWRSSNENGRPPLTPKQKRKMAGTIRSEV

Protein Tat = Protein Tat (Human immunodeficiency virus type 1 group M subtype B (isolate HXB2)(HIV-1), UniProt P04608); type: functional;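 note: tat binding to TAR RNA read out by fluorescence polarization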
Protein Tat, sequence (P04608 whole entry): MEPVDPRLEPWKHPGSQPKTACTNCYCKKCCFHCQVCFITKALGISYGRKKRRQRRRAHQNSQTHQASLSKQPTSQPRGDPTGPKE

Kallikrein-7 = Kallikrein-7 (Homo sapiens, UniProt P49862); test: Fluorescence Intensity-based biochemical primary high throughput dose response assay to identify activators of kallikrein-7 (K7) zymogen.
Kallikrein-7, sequence (P49862 whole entry): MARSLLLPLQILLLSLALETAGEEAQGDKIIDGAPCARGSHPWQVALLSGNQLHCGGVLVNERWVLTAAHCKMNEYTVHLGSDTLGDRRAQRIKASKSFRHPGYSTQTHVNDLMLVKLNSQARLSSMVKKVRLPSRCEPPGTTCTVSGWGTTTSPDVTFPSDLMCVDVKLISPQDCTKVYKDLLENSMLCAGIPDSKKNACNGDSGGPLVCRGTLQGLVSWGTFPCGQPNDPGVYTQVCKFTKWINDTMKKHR

Albumin = Albumin (Bos taurus, UniProt P02769); test: Counterscreen for inhibitors of T-cell receptor (TCR)-CD3 interaction: Fluorescence-based biochemical high throughput dose response assay to identify inhibitors of T-cell receptor (TCR)-CD3 interaction using a TAMRA-labeled BSA probe.; type: functional
Albumin, sequence (P02769 whole entry): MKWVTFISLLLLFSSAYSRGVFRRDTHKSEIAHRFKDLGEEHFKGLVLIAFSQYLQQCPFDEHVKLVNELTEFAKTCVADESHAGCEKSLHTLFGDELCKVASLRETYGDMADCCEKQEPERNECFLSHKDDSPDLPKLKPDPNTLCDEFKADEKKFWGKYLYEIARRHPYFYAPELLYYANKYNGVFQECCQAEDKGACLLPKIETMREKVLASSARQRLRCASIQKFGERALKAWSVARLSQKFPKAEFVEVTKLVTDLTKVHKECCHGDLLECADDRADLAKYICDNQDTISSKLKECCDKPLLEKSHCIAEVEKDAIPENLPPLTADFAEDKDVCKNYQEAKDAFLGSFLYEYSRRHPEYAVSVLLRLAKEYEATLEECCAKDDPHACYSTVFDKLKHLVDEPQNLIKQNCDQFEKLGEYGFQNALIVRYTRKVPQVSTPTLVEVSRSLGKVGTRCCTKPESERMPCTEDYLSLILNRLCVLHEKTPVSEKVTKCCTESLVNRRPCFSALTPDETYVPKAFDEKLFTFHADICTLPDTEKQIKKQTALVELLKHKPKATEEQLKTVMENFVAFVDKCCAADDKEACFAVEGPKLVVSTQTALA

[13] = Luminescence Cell-Based Dose Retest to Confirm Inhibitors of Cancer Stem Cells. [Related pubchem assays (depositor defined):AID2717, AID2721]; type: functional; conditions: Homo sapiens
[14] = CFTR ΔF508 corrector activity in bronchial cells, dose response, human bronchial epithelial cells, plate reader, cherry-pick, two tests (AID 743267); type: functional, cell-based

In the case of `OC(COC(c1ccc(F)cc1)c1ccc(F)cc1)CN1CCCC(C(F)(F)F)C1` (stereo not drawn), the EC50 (cells [1]) is reported as > 29.9 µM (inactive), the EC50 [2] is reported as 2.52 µM (active) and the IC50 (cells [3]) is reported as > 29.9 µM (inactive). For the same compound, the IC50 [4] was 8.46 µM (active).
With `CCN1CCN(C(=O)c2ccc3c(=O)n(C4CCCC4)c(=S)[nH]c3c2)CC1` the IC50 [5] was > 83.3 µM (inactive) and the IC50 [6] was > 109 µM (inactive).
In the case of `NS(=O)(=O)c1ccc(CCNC(=O)C2CCC(CNS(=O)(=O)c3ccc(Br)s3)CC2)cc1` (stereo not drawn), the EC50 (cells [1]) is reported as > 29.9 µM (inactive), the EC50 [2] is reported as > 29.9 µM (inactive) and the IC50 (cells [3]) is reported as > 29.9 µM (inactive). For the same compound, the IC50 [4] was 1.16 µM (active).
In the case of `Cc1cc(C)c(OCCCNCc2ccccc2)c(Br)c1`, the IC50 [7] is reported as > 96.6 µM (inactive).
With `Cn1c(N=Nc2ccc(N3CCOCC3)cc2)[n+](C)c2ccccc21` the IC50 [8] was 26 µM (active), the AC50 [9] was 2.36 µM (active) and the EC50 [10] was 219 µM (active). The CC50 [11] was 100 µM (active), the IC50 [7] was 34 µM (inactive) and the EC50 [12] was > 300 µM (not active). For the same compound, the IC50 (Nonstructural protein 1) was 8.01 µM (active).
In the case of `CC(C)(Oc1ccc(Cl)cc1)C(=O)NCc1ccco1`, the IC50 (Protein Tat) is reported as > 100 µM (active).
For `CN1C(=O)c2ccccc2N(C)C1c1ccc2c(c1)OCO2` (stereo not drawn), the EC50 (Kallikrein-7) was > 69.5 µM (inactive).
In the case of `O=C(CCCN1C(=O)/C(=C/c2cccs2)SC1=S)NNC(=O)c1ccccc1O`, the IC50 (Albumin) is reported as > 94.1 µM (inactive).
In the case of `CN(C)CCn1c2ccccc2c2nc3ccc([N+](=O)[O-])cc3cc21`, the AC50 [13] is reported as 2.35 µM (active) and the AC50 [14] is reported as 55.7 µM (active).
